From ChEMBL document CHEMBL3045317, “Synthesis of novel analogues on the -carbon of houttuyfonate and SAR analysis of antibacterial activity with MOPAC” (Med Chem Res, 2009)
Activity calls are given as the source filed them. The calls are words filed in the database; no cut-off is given here.

What was measured:
Format in all cases: functional, organism-based
Pseudomonas aeruginosa = assay: Antimicrobial activity against Pseudomonas aeruginosa ATCC 27853 after 24 hr by broth microdilution method
Salmonella typhi = assay: Antimicrobial activity against Salmonella enterica subsp. enterica serovar Typhi ATCC 19430 after 24 hr by broth microdilution method
Proteus mirabilis = assay: Antimicrobial activity against Proteus mirabilis ATCC 49027 after 24 hr by broth microdilution method
Bacillus subtilis = assay: Antimicrobial activity against Bacillus subtilis CCRC 10255 after 24 hr by broth microdilution method
Staphylococcus aureus = assay: Antimicrobial activity against Staphylococcus aureus ATCC 25923 after 24 hr by broth microdilution method
Escherichia coli = assay: Antimicrobial activity against Escherichia coli ATCC 25922 after 24 hr by broth microdilution method
Shigella dysenteriae = assay: Antimicrobial activity against Shigella dysenteriae NI-51570 after 24 hr by broth microdilution method

| Structure (SMILES) | Activity (Pseudomonas aeruginosa) | Activity (Salmonella typhi) | Activity (Proteus mirabilis) | Activity (Bacillus subtilis) | Activity (Staphylococcus aureus) | Activity (Escherichia coli) | Activity (Shigella dysenteriae) |
| --- | --- | --- | --- | --- | --- | --- | --- |
| CCCCCCCC(=O)C(C=O)CC (stereo not drawn) | inactive | inactive | inactive | Active | Active | inactive | inactive |
| CCCCCCCCCCCC(=O)CC=O |  |  |  | Active | Active |  |  |
| CCCCCCCC(=O)CC=O |  |  |  | Active | Active |  |  |
| CCCCCCCCCC(=O)CC=O |  |  |  | Active | Active |  |  |
